For series [1], the system named is A549. Description: Cytotoxicity against human A549 cells assessed as cell growth inhibition. Format: functional, cell-based.
Series [2] relates to PC-3. Description: Cytotoxicity against human PC-3 cells assessed as cell growth inhibition. Format: functional, cell-based.
Series [3] relates to P388. Description: Cytotoxicity against mouse P388 cells assessed as inhibition of cell growth. The series is classed as functional, cell-based.
In series [4] the test system is Pseudomonas aeruginosa. Kind of series: Antibacterial activity against Pseudomonas aeruginosa PA01 assessed as inhibition of swarming at 100 ppm relative to control. The series is classed as functional.
The subject of series [5] is SK-OV-3. Kind of series: Cytotoxicity against human SK-OV-3 cells assessed as cell growth inhibition. The series is classed as functional, cell-based.
For series [6], the system named is HCT-8. Description: Cytotoxicity against human HCT-8 cells assessed as cell growth inhibition. Format: functional, cell-based.
The subject of series [7] is Plasmodium falciparum. Kind of series: Antimalarial activity against Plasmodium falciparum assessed as growth inhibition. Format: functional, organism-based.
A short description of series [8]: Toxicity in goldfish assessed as lethality at 5 ppm relative to control. To be noted: carassius auratus, read-out: Activity.
The test system of series [9] is NCI-H460. Kind of series: Cytotoxicity against human NCI-H460 cells. Format: functional, cell-based.
Series [10] is described as follows: Toxicity in brine shrimp assessed as lethality at 10 ppm relative to control. The following applies: artemia salina, read-out: Activity.
Series [11] relates to N2a. Description: Cytotoxicity against mouse Neuro2a cells assessed as inhibition of cell growth. Format: functional, cell-based. The following applies: Mus musculus, N2a.
The species entered for series [12] is Homo sapiens. Kind of series: Inhibition of Voltage-gated sodium channel (unknown origin) at 3 ug/ml incubated for 18 hrs by cell-based bioassay relative to control. The following applies: dose 3.0 µg/ml.
Series [13] in a line: Toxicity in goldfish assessed as lethal dose. To be noted: carassius auratus.
Series [14] has as its system HeLa. Kind of series: Cytotoxicity against human HeLa cells assessed as inhibition of cell growth incubated for 72 hrs by MTT assay. Format: functional, cell-based. For orientation: Tetrazolium assays rely on reduction of a dye to a coloured formazan, in cell work by metabolically active cells.
The subject of series [15] is HCT-116. Description: Cytotoxicity against human HCT-116 cells assessed as inhibition of cell growth. Format: functional, cell-based.
Series [16] can be described thus: Toxicity in goldfish assessed as survival rate at 5 ppm measured after 90 mins relative to control. The following applies: carassius auratus.
The subject of series [17] is L1210. Description: Cytotoxicity against mouse L1210 cells assessed as inhibition of cell growth. Format: functional, cell-based.
Series [18] deals with Nitzschia amabilis. Description: Growth inhibition of marine diatom assessed as inhibition. Format: functional, organism-based.
A short description of series [19]: Toxicity in mouse assessed as lethal dose. The following applies: in vivo.
Series [20] in a line: Toxicity in brine shrimp assessed as lethal dose. To be noted: artemia salina.
Series [21] can be described thus: Toxicity in brine shrimp. To be noted: artemia salina; read-out: ED50 (the source's name).
Series [22] deals with PANC-1. Description: Cytotoxicity against human PANC-1 cells. Format: functional, cell-based.
The species named for series [23] is Homo sapiens. Description: Activation of Voltage-gated sodium channel (unknown origin) at 3 ug/ml incubated for 18 hrs by cell-based bioassay relative to control. To be noted: dose 3.0 µg/ml.
The subject of series [24] is U-251. Kind of series: Cytotoxicity against human U-251MG cells. The series is classed as functional, cell-based.
Series [25] addresses Protein kinase C delta type (Homo sapiens, UniProt Q05655). Kind of series: Inhibition of [3H]-PDBu binding to PKCdelta C1B domain (unknown origin) by competitive binding assay.
Series [26] in a line: Toxicity in shrimp assessed as lethal dose. The following applies: palaemon paucidens.
Series [27] relates to MCF7. Description: Cytotoxicity against human MCF7 cells assessed as inhibition of cell growth. The series is classed as functional, cell-based.
The target in series [28] is Tubulin (Homo sapiens) (UniProt P68371+Q9H4B7+P0DPH7+P68366+Q13509+Q71U36+P04350+Q3ZCM7+P07437+P68363+Q9BQE3+Q6PEY2+Q13885+Q9BVA1+Q9BUF5). Description: Inhibition of colchicine binding to tubulin (unknown origin) assessed inhibition rate at 5 uM relative to control. The series is classed as protein-complex assay.
The test system of series [29] is Neuro2a. Kind of series: Inhibition of sodium channel in mouse Neuro2a cells. The series is classed as cell-based.
Series [30] deals with Echinoidea. Description: Antiproliferative activity against sea urchin fertilized embryo assessed as inhibition of cell division. Format: functional, organism-based.
Series [31] has as its system CA46. Description: Cytotoxicity against human CA46 cells assessed as inhibition of cell growth. Format: functional, cell-based.
A short description of series [32]: Antiproliferative activity against CHO-AUXB1 cells. Format: toxicity, cell-based. To be noted: Chinese hamster (Cricetulus griseus).
The target in series [33] is Tubulin. Description: Inhibition of tubulin polymerization (unknown origin) by tubulin polymerization assay. Format: protein-complex assay, Homo sapiens.
The test system of series [34] is KB. Description: Cytotoxicity against human KB cells. Format: functional, cell-based.
Series [35] concerns LoVo. Kind of series: Cytotoxicity against human LoVo cells. Format: functional, cell-based.
The subject of series [36] is HeLa. Kind of series: Cytotoxicity against human HeLa cells assessed as inhibition of cell growth incubated for 48 hrs by WST-8 colorimetric assay. Format: functional, cell-based.
The mark [37] stands for this setting: read-out: LD50 (the source's name).

Values after ≈ are worked out from the molar mass of the structure shown.

Sequence of Protein kinase C delta type (Q05655 whole entry, the tested form may be a part): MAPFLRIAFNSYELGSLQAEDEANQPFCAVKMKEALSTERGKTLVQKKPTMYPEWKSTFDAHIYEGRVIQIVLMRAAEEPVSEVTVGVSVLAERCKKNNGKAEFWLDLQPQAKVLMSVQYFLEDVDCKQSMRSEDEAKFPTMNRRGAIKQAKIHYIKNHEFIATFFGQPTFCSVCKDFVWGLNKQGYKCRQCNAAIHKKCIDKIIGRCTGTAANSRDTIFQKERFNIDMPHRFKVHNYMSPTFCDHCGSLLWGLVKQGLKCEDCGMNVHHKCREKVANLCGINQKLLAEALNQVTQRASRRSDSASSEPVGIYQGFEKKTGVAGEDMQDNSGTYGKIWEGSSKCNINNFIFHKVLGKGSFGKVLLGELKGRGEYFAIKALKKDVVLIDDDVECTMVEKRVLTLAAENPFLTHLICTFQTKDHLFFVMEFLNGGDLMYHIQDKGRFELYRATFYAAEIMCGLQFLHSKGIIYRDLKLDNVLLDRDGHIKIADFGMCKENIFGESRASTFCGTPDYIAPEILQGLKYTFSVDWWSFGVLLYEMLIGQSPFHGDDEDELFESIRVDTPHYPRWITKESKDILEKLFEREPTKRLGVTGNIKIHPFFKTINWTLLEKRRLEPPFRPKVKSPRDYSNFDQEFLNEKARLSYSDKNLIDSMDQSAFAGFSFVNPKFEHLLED

Usually IC50 stands for the point on the concentration scale where inhibition reaches its midpoint. The inhibition is the drop in the measured response relative to a control, in per cent. For the molecule `CC[C@@H](C)[C@@H]1NC(=O)CN(C)C(=O)[C@@H](Cc2ccccc2)N(C)C(=O)[C@H](C)NC(=O)[C@@H]([C@@H](C)CC)OC(=O)/C(C)=C/C[C@H](O)[C@@H](C)C[C@H]([C@@H](C)CC)OC(=O)[C@H](C)N(C)C1=O`, the IC50 in series [1] is 2.1 nM; in series [2], 2.1 nM; in series [3], 2.1 nM; in series [5], 2.1 nM; in series [6], 2.1 nM; in series [7], 290 nM. Besides, in series [4], the inhibition at 100 µg/mL was determined as 49%.

For `C=CCCC/C(=C/Cl)CCC(C)/C=C/CCC(=O)NCC/C(=C\C(=O)N1C(=O)C=C[C@@H]1C)OC` (stereo partly drawn), the mortality at 5 ppm in [8] was determined as 100%. Further, the IC50 in series [9] and in series [11] was 15000 nM in each case. Besides, the mortality at 10 ppm in series [10] was found to be 25%.

For the molecule `CCCCCCCC[C@@H](C/C=C/CCC(=O)NC/C(=C/Cl)[C@]12O[C@H]1[C@H](OC(C)=O)CCC2=O)OC`, the IC50 in series [9] and in series [11] was 4000 nM in each case. Also, the inhibition in series [12] was determined as 28%.

As for `C=C1CC(=O)N[C@@H](C)C(=O)N(C)[C@@H](C(C)C)C(=O)NCC(=O)O[C@@H](/C(C)=C/C(C)=C/C(C)(C)C)[C@@H]1C` [ANTILLATOXIN], in series [13], the LC50 came out at 100 nM.

Take `CC/C(=C\C(=O)N(C)/C=C\CCC[C@H]1CC[C@H](C)C[C@@H](C)C(=O)N(C)[C@@H](CC(C)C)C(=O)O1)OC`: in series [14], the IC50 was 2500 nM.

Turning to `CCCCC(C)C1C[C@@H](O)CCC[C@H](O)C[C@@H](O)C[C@@H](O)CCCC(O)CCCC(O)CCCC(O)CCCC(O)CCCC(O)CC(C)CC(=O)O1` (stereo partly drawn), the IC50 in [15] amounted to 9900 nM.

Take `C#CCCC/C(=C/Cl)CCC(C)/C=C/CCC(=O)NCC/C(=C\C(=O)N1C(=O)C=C[C@@H]1C)OC` (stereo partly drawn): the survival at 1.5 h, 5 ppm in series [16] worked out at 0%. Besides, the IC50 in series [9] and in [11] was 15000 nM in each case.

On to `CO[C@@H](CC[C@H](C)[C@@H](O)[C@@H](C)/C=C/C1=C(C(=O)O[C@@H]2CC(=O)O[C@@H]2C)C(=O)[C@H](C)CC1(C)C)c1cc(O)ccc1Br`, for which the IC50 is 4.6 µg/mL in series [17] and 1.2 µg/mL (≈ 1.89 µM) in series [18].

In the case of `CC[C@H](C)[C@@H]1NC(=O)CNC(=O)c2csc(n2)[C@H](C(C)(C)O)OC(=O)C(C)(C)[C@H](CCCC(C)(Cl)Cl)OC(=O)c2csc1n2` [LYNGBYABELLIN A], the LD in [19] was 2.4 mg/kg. Further, the IC50 in [15] is 52.1 nM.

`O=CNC(CCCC#CC=C(Cl)Cl)CCC/C=C/CC(Cl)Cl` (stereo not drawn): the LC50 in [20] (setting [37]) was 1.7 µg/mL; in series [21], 1 µg/mL (≈ 2.6 µM).

In series [22], `CCCC[C@@H](C)C[C@@H](C)C(=O)N(C)[C@@H](Cc1ccc(OC)cc1)C(=O)N[C@H](C(=O)N(C)[C@H](C(=O)N1C[C@@H](O)C[C@H]1C(=O)N1C(=O)C=C[C@@H]1C)C(C)C)[C@@H](C)OC(C)=O` came in with an IC50 of 0.32 nM.

As for `CCCCCCCC[C@@H](C/C=C/CCC(=O)NC/C(=C/Cl)C1=CCC[C@@H](OC(C)=O)C1=O)OC`, the IC50 in [9] and in series [11] was 4000 nM throughout. Further, the inhibition in [12] came to 28%. In series [23], this molecule registered an Activity of 19%.

Take `O=CNC(CCCC#CC=C(Cl)Cl)CCCCCCC(Cl)Cl` (stereo not drawn): the figures for the LC50 in series [20] (setting [37]) and in series [21] were 1.7 µg/mL and 1 µg/mL (≈ 2.58 µM), respectively.

For the molecule `CCCC[C@@H](C)C[C@@H](C)C(=O)N(C)[C@@H](Cc1ccc(OC)cc1)C(=O)N[C@H](C(=O)N(C)[C@H](C(=O)N1CCC[C@H]1C(=O)N1C(=O)C=C[C@@H]1C)C(C)C)[C@@H](C)OC(C)=O`, the midpoint of inhibition in [24], the IC50, lay at 36.8 nM.

One may read the Ki as the dissociation constant of the complex between target and ligand, obtained from inhibition or displacement. Low readings indicate a stronger hold on the target, high ones a looser hold on the target. In the case of `C=C[C@@](C)(CCC=C(C)C)c1ccc2c3c(c[nH]c13)C[C@@H](CO)NC(=O)[C@H](C(C)C)N2C`, the affinity in series [25], expressed as Ki, was 0.11 nM. Further, in [17], the IC50 stood at 8100 nM. Also, the LD100 in series [26] came to 5 mg/kg.

For `C=CCC(CC/C=C/C=C/CC/C=C\C1CSC([C@@H]2C[C@@H]2C)=N1)OC` (stereo partly drawn), the IC50 in series [27] turned out to be 340 nM. Further, in [20] (setting [37]), the LC50 turned out to be 15600 nM. The molecule also had an inhibition in series [28] of 53%.

`C=C[C@@H]1CSC(C[C@@H](C)[C@@H](C)C[C@H](C)CCN(C)C(=O)[C@H](C)CC)=N1` came in with an INH in series [29] of 1 nM. Also, the LC50 in [20] (read-out: LC50) amounted to 170 nM; in series [13], 700 nM. For the same molecule, the IC50 in series [30] worked out at 25 nM.

For the molecule `CC[C@H](C)[C@H]1C(=O)N2CCC[C@H]2C(=O)O[C@H](C(C)(C)C)C[C@@H](C)C/C=C/C2=N[C@@H](CCC(=O)N[C@@H](Cc3ccc(OC)cc3)C(=O)N(C)[C@@H](C)C(=O)N1C)CS2` [APRATOXIN E], the IC50 in [15] turned out to be 100 nM.

In the case of `C=CCC(CC/C(C)=C/C=C/CC/C=C\C1CSC([C@@H]2C[C@@H]2C)=N1)OC` (stereo partly drawn), the 50% inhibitory concentration (IC50) came to 200 nM in [31], 0.0068 µg/mL (≈ 0.0182 µM) in series [32], 9 nM in series [17] and 690 nM in [33]. Moreover, the LC50 in series [20] (read-out: LC50) amounted to 0.003 µg/mL. The molecule also returned an inhibition in series [28] of 94%.

For the molecule `C=C(CCNC(=O)CC/C=C/C[C@H](CCCCCCCC)OC)[C@@]12O[C@H]1[C@H](O[C@H]1OC[C@H](OC)[C@@H](O)[C@@H]1OC)C=C(C)C2=O`, the IC50 in [9] and in series [11] was 4000 nM throughout. This molecule displayed an inhibition in series [12] of 28%.

Molecule `C=C[C@@](C)(CCC=C(C)C)c1ccc2c3c1NC(=O)[C@@]3(O)C[C@@H](CO)NC(=O)[C@@H](C(C)C)N2` returned an inhibition constant (Ki) in series [25] of 940 nM. Moreover, in series [17], the IC50 stood at 321000 nM. For the same molecule, the LD33 in series [26] came out at 25 mg/kg.

`O=CNC(CCCC#C/C=C\Cl)CCC/C=C\C=C(Cl)Cl` (stereo not drawn): the LC50 in series [20] (setting [37]) stood at 1.7 µg/mL; in series [21], 1 µg/mL (≈ 2.87 µM).

Consider `CC[C@@H](C)[C@H]1C(=O)N2CCC[C@H]2C(=O)O[C@H](C(C)(C)C)C[C@@H](C)C[C@H](O)[C@H](C)C2=N[C@@H](/C=C(\C)C(=O)N[C@@H](Cc3ccc(OC)cc3)C(=O)N(C)[C@@H](C)C(=O)N1C)CS2`, for which the half-inhibitory concentration (IC50) is 0.36 nM in series [34], 0.36 nM in [35], 190 nM in series [36] and 1000 nM in [11].

The record behind these values is ChEMBL document CHEMBL5244246, “Recent advances in chemistry and bioactivity of marine cyanobacteria Moorea species” (Eur J Med Chem, 2020).
